Source: patent US20250353891A1 (MEDIMMUNE LIMITED, priority 2022, published 2025)
pEC50: −log10 of the molar value. Starred links: 1 amine or outer side, 2 acyl side, 3 side chain; linkers in the order of their positions; H or OH if unused. Non-standard residues stand in square brackets, D forms with d. Residues, ends and D or L forms follow the SMILES beside them. Groups on a side chain read outwards from the residue. *: point of attachment. Dip = N[C@H](C(=O)O)C(c1ccccc1)c1ccccc1; γGlu = O=C(O)[C@H](CCC(=O)[*:2])N[*:1]; Stearoyl = CCCCCCCCCCCCCCCCCC(=O)*; αMeF = C[C@](N)(Cc1ccccc1)C(=O)O; Cha = N[C@@H](CC1CCCCC1)C(=O)O; PEG2 = NCCOCCOCCC(=O)O; Aib = CC(C)(N)C(=O)O

Assays:
[1] = Mouse acute food intake study; assay type: in vivo; conditions: male C57Bl/6 mice, s.c., dose 10 nmol/kg, cumulative food intake at 24 hr vs vehicle
Procedure, shortened: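 Single-housed male C57Bl/6 mice (8-9 weeks on arrival), chow-fed, acclimated and sham-dosed ≥2 times, were fasted 6-8 h, then given vehicle or peptide subcutaneously at 5 mL/kg 1-2 h before lights out. Food intake was recorded automatically over 48 h and analysed as cumulative intake.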

[2] = Proteolytic resistance to FasSSIF/Pancreatin; assay type: in vitro ADME; conditions: simulated intestinal fluid
Description: A fresh suspension of FasSSIF/P (Fasted-State Simulated Intestinal Fluid+USP Pancreatin®) was prepared according to that described by Galia, Nicolaides, Hörter, Löbenberg, Reppas and Dressman: Pharm. Res. 15 (1998) 698-705, and USP XL requirements. The resulting preparation was used immediately without storage.
Peptide for evaluation (1.0 mg) was dissolved in pre-warmed FasSSIF without Pancreatin® (200 μL). To this fresh FasSSIF/Pancreatin® (100 μL) was added to initiate potential proteolysis. Following momentary vortexing of the reaction tube the mixture was incubated at 37° C. in a thermostatic water bath for the duration of the experiment. 25 μL aliquot of the co-incubated peptide-enzyme mixture was periodically withdrawn (t=0, 5, 10 15 and 30 min) and quenched immediately by addition to a solution of 10% TFA in 1:1 water/acetonitrile (75 μL) to arrest proteolytic activity. Quenched samples were centrifuged (7800 RPM, 3 mins) to pellet solids and 10 μL aliquots of the supernatant solution were analyzed using analytical RP-HPLC as follows: Analytical RP-HPLC method: Agilent Polaris C8-A column (4.6×100 mm, 3 micron) eluted with a linear binary gradient of 10-90% MeCN (0.1% TFA v/v) in water (0.1% TFA v/v) over either 10 or 15 mins at 1.5 mL min^−1 at 40° C. with detection by UV absorption at 210 nm. Manual integration (AUC) allowed estimation of remaining intact peptide over the time course of the experiment.

[3] = molecular target: human GLP-1 receptor (hGLP-1R) (Homo sapiens, UniProt P43220); assay: cAMP production (HTRF) in CHO cells expressing hGLP-1R; assay type: cell-based; parameters: expressed in transfected cells; conditions: for pEC50: Table 6, peptides modified at position 17, cAMP in CHO hGLP-1R cells, geometric mean, read-out: hGLP-1R EC50; for % Relative Potency Ratio: Table 6, % GLP-1R activity relative to GLP-1 / % GlucR activity relative to glucagon
Sequence of human GLP-1 receptor (hGLP-1R) (P43220 24-463): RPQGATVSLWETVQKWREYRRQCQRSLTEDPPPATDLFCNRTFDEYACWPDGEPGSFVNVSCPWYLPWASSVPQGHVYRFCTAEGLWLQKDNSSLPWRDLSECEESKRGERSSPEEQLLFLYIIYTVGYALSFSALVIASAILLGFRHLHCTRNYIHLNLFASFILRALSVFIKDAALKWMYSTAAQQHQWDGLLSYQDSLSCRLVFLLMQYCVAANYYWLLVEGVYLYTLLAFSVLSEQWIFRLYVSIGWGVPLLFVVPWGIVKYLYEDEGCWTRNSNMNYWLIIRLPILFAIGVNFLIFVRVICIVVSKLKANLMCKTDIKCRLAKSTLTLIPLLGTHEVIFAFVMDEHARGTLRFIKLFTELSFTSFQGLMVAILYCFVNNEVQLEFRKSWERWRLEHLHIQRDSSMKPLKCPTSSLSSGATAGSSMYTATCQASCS
Procedure, shortened: (§1)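 Read-out: HTRF cAMP (anti-cAMP cryptate donor, cAMP-d2 acceptor in conjugate/lysis buffer), converted to % Delta F and fitted by 4-parameter logistic for EC50. Cell densities were 1×10^5 cells/mL (hGLP-1R) or 2×10^5 cells/mL (hGCGR). Stimulation lasted 30 min at room temperature.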

[4] = molecular target: human glucagon receptor (hGCGR) (Homo sapiens, UniProt P47871); assay: cAMP production (HTRF) in CHO cells expressing hGCGR; assay type: cell-based; parameters: expressed in transfected cells; conditions: Table 6, peptides modified at position 17; cAMP in CHO hGCGR cells; geometric mean; read-out: hGluc-R EC50
Sequence of human glucagon receptor (hGCGR) (P47871 26-477): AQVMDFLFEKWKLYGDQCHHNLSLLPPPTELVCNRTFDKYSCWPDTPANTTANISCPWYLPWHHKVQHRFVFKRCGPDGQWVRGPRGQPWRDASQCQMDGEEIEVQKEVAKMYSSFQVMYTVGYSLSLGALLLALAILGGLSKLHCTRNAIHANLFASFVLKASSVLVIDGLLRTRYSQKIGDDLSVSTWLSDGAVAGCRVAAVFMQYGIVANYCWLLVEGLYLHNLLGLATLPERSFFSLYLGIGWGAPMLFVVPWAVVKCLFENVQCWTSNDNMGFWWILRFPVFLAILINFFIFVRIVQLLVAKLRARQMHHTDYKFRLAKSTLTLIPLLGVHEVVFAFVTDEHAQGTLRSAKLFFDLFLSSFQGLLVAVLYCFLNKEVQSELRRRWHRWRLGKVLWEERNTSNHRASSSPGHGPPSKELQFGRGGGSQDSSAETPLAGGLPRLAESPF
Procedure, shortened: as §1

## CCCCCCCCCCCCCCCCCC(=O)N[C@@H](CCC(=O)N[C@@H](CCC(=O)NCCOCCOCCC(=O)NCCOCCOCCC(=O)NCCCC[C@H](NC(=O)[C@H](CO)NC(=O)[C@H](CC(=O)O)NC(=O)[C@H](CC(C)C)NC(=O)[C@@H](NC(=O)[C@H](CCCCN)NC(=O)[C@H](CO)NC(=O)[C@@H](NC(=O)[C@H](CC(=O)O)NC(=O)[C@H](CO)NC(=O)[C@@H](NC(=O)[C@](C)(Cc1ccccc1)NC(=O)[C@H](CO)NC(=O)CNC(=O)[C@H](CCC(N)=O)NC(=O)[C@H](CO)NC(=O)[C@@H](N)Cc1c[nH]cn1)[C@@H](C)O)C(C)C)C(c1ccccc1)c1ccccc1)C(=O)N[C@@H](C)C(=O)N[C@@H](C)C(=O)N[C@@H](CCC(N)=O)C(=O)N[C@@H](CC(=O)O)C(=O)N[C@@](C)(Cc1ccccc1)C(=O)N[C@H](C(=O)N[C@@H](CCC(=O)O)C(=O)NC(C)(C)C(=O)N[C@@H](CC(C)C)C(=O)N[C@@H](C)C(=O)N[C@@H](CC(N)=O)C(=O)N[C@H](C(N)=O)[C@@H](C)O)C(C)C)C(=O)O)C(=O)O [Peptide 47] (H-HSQGS[αMeF]TSDVSK[Dip]LDSK([PEG2-PEG2-γGlu-γGlu-Stearoyl])AAQD[αMeF]VE[Aib]LANT-NH2; N-terminus assumed)
[1]
  24 hr % Vehicle Food Intake: 51.4%
[2]
  remaining at 5 min, 3.3 mg/mL: 90%
  remaining at 10 min, 3.3 mg/mL: 88%
  remaining at 0.25 h, 3.3 mg/mL: 83%
  remaining at 0.5 h, 3.3 mg/mL: 75%
[3]
  pEC50: 11.77
  % Relative Potency Ratio: 2.7
[4]
  pEC50: 11.62

## CCCCCCCCCCCCCCCCCC(=O)N[C@@H](CCC(=O)N[C@@H](CCC(=O)NCCOCCOCCC(=O)NCCOCCOCCC(=O)NCCCC[C@H](NC(=O)[C@H](CO)NC(=O)[C@H](CC(=O)O)NC(=O)[C@H](CC(C)C)NC(=O)[C@@H](NC(=O)[C@H](CCCCN)NC(=O)[C@H](CO)NC(=O)[C@@H](NC(=O)[C@H](CC(=O)O)NC(=O)[C@H](CO)NC(=O)[C@@H](NC(=O)[C@](C)(Cc1ccccc1)NC(=O)[C@H](CO)NC(=O)CNC(=O)[C@H](CCC(N)=O)NC(=O)[C@H](CO)NC(=O)[C@@H](N)Cc1c[nH]cn1)[C@@H](C)O)C(C)C)C(c1ccccc1)c1ccccc1)C(=O)N[C@@H](C)C(=O)N[C@@H](C)C(=O)N[C@@H](CCC(N)=O)C(=O)N[C@@H](CC(=O)O)C(=O)N[C@@](C)(Cc1ccccc1)C(=O)N[C@H](C(=O)N[C@@H](CCC(=O)O)C(=O)NC(C)(C)C(=O)N[C@@H](CC(C)C)C(=O)N[C@H](C(=O)N[C@@H](CO)C(=O)NCC(N)=O)[C@@H](C)CC)C(C)C)C(=O)O)C(=O)O [Peptide 48] (H-HSQGS[αMeF]TSDVSK[Dip]LDSK([PEG2-PEG2-γGlu-γGlu-Stearoyl])AAQD[αMeF]VE[Aib]LISG-NH2; N-terminus assumed)
[2]
  remaining at 0.5 h, 3.3 mg/mL: 94%
[3]
  pEC50: 10.70
  % Relative Potency Ratio: 4.3
[4]
  pEC50: 10.36

## CCCCCCCCCCCCCCCCCC(=O)N[C@@H](CCC(=O)N[C@@H](CCC(=O)NCCOCCOCCC(=O)NCCOCCOCCC(=O)NCCCC[C@H](NC(=O)[C@H](CO)NC(=O)[C@H](CC(=O)O)NC(=O)[C@H](CC(C)C)NC(=O)[C@@H](NC(=O)[C@H](CCCCN)NC(=O)[C@H](CO)NC(=O)[C@@H](NC(=O)[C@H](CC(=O)O)NC(=O)[C@H](CO)NC(=O)[C@@H](NC(=O)[C@](C)(Cc1ccccc1)NC(=O)[C@H](CO)NC(=O)CNC(=O)[C@H](CCC(N)=O)NC(=O)[C@H](CO)NC(=O)[C@@H](N)Cc1c[nH]cn1)[C@@H](C)O)C(C)C)C(c1ccccc1)c1ccccc1)C(=O)N[C@@H](C)C(=O)N[C@@H](C)C(=O)N[C@@H](CCC(N)=O)C(=O)N[C@@H](CC(=O)O)C(=O)N[C@@](C)(Cc1ccccc1)C(=O)N[C@H](C(=O)N[C@@H](CCC(=O)O)C(=O)NC(C)(C)C(=O)N[C@@H](CC(C)C)C(=O)N[C@@H](CC(C)C)C(=O)N[C@@H](CC(N)=O)C(=O)N[C@H](C(N)=O)[C@@H](C)O)C(C)C)C(=O)O)C(=O)O [Peptide 51] (H-HSQGS[αMeF]TSDVSK[Dip]LDSK([PEG2-PEG2-γGlu-γGlu-Stearoyl])AAQD[αMeF]VE[Aib]LLNT-NH2; N-terminus assumed)
[2]
  remaining at 0.5 h, 3.3 mg/mL: 91%
[3]
  pEC50: 10.74
  % Relative Potency Ratio: 4.6
[4]
  pEC50: 10.38

## CCCCCCCCCCCCCCCCCC(=O)N[C@@H](CCC(=O)N[C@@H](CCC(=O)NCCOCCOCCC(=O)NCCOCCOCCC(=O)NCCCC[C@H](NC(=O)[C@H](CO)NC(=O)[C@H](CC(=O)O)NC(=O)[C@H](CC(C)C)NC(=O)[C@@H](NC(=O)[C@H](CCCCN)NC(=O)[C@H](CO)NC(=O)[C@@H](NC(=O)[C@H](CC(=O)O)NC(=O)[C@H](CO)NC(=O)[C@@H](NC(=O)[C@](C)(Cc1ccccc1)NC(=O)[C@H](CO)NC(=O)CNC(=O)[C@H](CCC(N)=O)NC(=O)[C@H](CO)NC(=O)[C@@H](N)Cc1c[nH]cn1)[C@@H](C)O)C(C)C)C(c1ccccc1)c1ccccc1)C(=O)N[C@@H](C)C(=O)N[C@@H](C)C(=O)N[C@@H](CCC(N)=O)C(=O)N[C@@H](CC(=O)O)C(=O)N[C@@](C)(Cc1ccccc1)C(=O)N[C@H](C(=O)N[C@@H](CCC(=O)O)C(=O)NC(C)(C)C(=O)N[C@@H](CC1CCCCC1)C(=O)N[C@@H](C)C(=O)N[C@@H](CC(N)=O)C(=O)N[C@H](C(N)=O)[C@@H](C)O)C(C)C)C(=O)O)C(=O)O [Peptide 52] (H-HSQGS[αMeF]TSDVSK[Dip]LDSK([PEG2-PEG2-γGlu-γGlu-Stearoyl])AAQD[αMeF]VE[Aib][Cha]ANT-NH2; N-terminus assumed)
[2]
  remaining at 0.5 h, 3.3 mg/mL: 90%
[3]
  pEC50: 10.64
  % Relative Potency Ratio: 0.6
[4]
  pEC50: 11.18

## CCCCCCCCCCCCCCCCCC(=O)N[C@@H](CCC(=O)N[C@@H](CCC(=O)NCCOCCOCCC(=O)NCCOCCOCCC(=O)NCCCC[C@H](NC(=O)[C@H](CO)NC(=O)[C@H](CC(=O)O)NC(=O)[C@H](CC(C)C)NC(=O)[C@@H](NC(=O)[C@H](CCCCN)NC(=O)[C@H](CO)NC(=O)[C@@H](NC(=O)[C@H](CC(=O)O)NC(=O)[C@H](CO)NC(=O)[C@@H](NC(=O)[C@](C)(Cc1ccccc1)NC(=O)[C@H](CO)NC(=O)CNC(=O)[C@H](CCC(N)=O)NC(=O)[C@H](CO)NC(=O)[C@@H](N)Cc1c[nH]cn1)[C@@H](C)O)C(C)C)C(c1ccccc1)c1ccccc1)C(=O)N[C@@H](C)C(=O)N[C@@H](C)C(=O)N[C@@H](CCC(N)=O)C(=O)N[C@@H](CC(=O)O)C(=O)N[C@@](C)(Cc1ccccc1)C(=O)N[C@H](C(=O)N[C@@H](CCC(=O)O)C(=O)NC(C)(C)C(=O)N[C@H](C(=O)N[C@H](C(=O)N[C@@H](CCC(=O)O)C(=O)NCC(=O)NCC(N)=O)C(C)C)C(C)C)C(C)C)C(=O)O)C(=O)O [Peptide 53] (H-HSQGS[αMeF]TSDVSK[Dip]LDSK([PEG2-PEG2-γGlu-γGlu-Stearoyl])AAQD[αMeF]VE[Aib]VVEGG-NH2)
[2]
  remaining at 0.5 h, 3.3 mg/mL: 92%
[3]
  pEC50: 11.52
  % Relative Potency Ratio: 12.3
[4]
  pEC50: 10.72

## CCCCCCCCCCCCCCCCCC(=O)N[C@@H](CCC(=O)N[C@@H](CCC(=O)NCCOCCOCCC(=O)NCCOCCOCCC(=O)NCCCC[C@H](NC(=O)[C@H](CO)NC(=O)[C@H](CC(=O)O)NC(=O)[C@H](CC(C)C)NC(=O)[C@@H](NC(=O)[C@H](CCCCN)NC(=O)[C@H](CO)NC(=O)[C@@H](NC(=O)[C@H](CC(=O)O)NC(=O)[C@H](CO)NC(=O)[C@@H](NC(=O)[C@](C)(Cc1ccccc1)NC(=O)[C@H](CO)NC(=O)CNC(=O)[C@H](CCC(N)=O)NC(=O)[C@H](CO)NC(=O)[C@@H](N)Cc1c[nH]cn1)[C@@H](C)O)C(C)C)[C@@H](C)CC)C(=O)N[C@@H](C)C(=O)N[C@@H](C)C(=O)N[C@@H](CCC(N)=O)C(=O)N[C@@H](CC(=O)O)C(=O)N[C@@](C)(Cc1ccccc1)C(=O)N[C@H](C(=O)N[C@@H](CCC(N)=O)C(=O)NC(C)(C)C(=O)N[C@H](C(=O)N[C@H](C(=O)N[C@@H](CC(N)=O)C(=O)N[C@H](C(N)=O)[C@@H](C)O)[C@@H](C)CC)[C@@H](C)CC)C(C)C)C(=O)O)C(=O)O [Peptide 117] (H-HSQGS[αMeF]TSDVSKILDSK([PEG2-PEG2-γGlu-γGlu-Stearoyl])AAQD[αMeF]VQ[Aib]IINT-NH2; N-terminus assumed)
[2]
  remaining at 5 min, 3.3 mg/mL: 54%
  remaining at 10 min, 3.3 mg/mL: 35%
  remaining at 0.25 h, 3.3 mg/mL: 22%
  remaining at 0.5 h, 3.3 mg/mL: 8%
[3]
  pEC50: 11.85
  % Relative Potency Ratio: 2.6
[4]
  pEC50: 11.73
